Experimental data: patent US20080287479A1, “INHIBITORS OF SERINE PALMITOYLTRANSFERASE” (Pfizer Inc, priority 2006, published 2008)
Counter-ions that a name gives are not always drawn. Like-named read-outs stand apart in the source and are kept apart here.

Target: T1, Serine Palmitoyl Transferase (SPT); microsomes from HEK 293 cells stably transfected with human LCB2 subunit of SPT (Homo sapiens, UniProt O15270)
T1 construct: expressed in transfected cells; host or cells: HEK 293 cells stably transfected with LCB2; microsomal fraction
T1 sequence (O15270 1-562): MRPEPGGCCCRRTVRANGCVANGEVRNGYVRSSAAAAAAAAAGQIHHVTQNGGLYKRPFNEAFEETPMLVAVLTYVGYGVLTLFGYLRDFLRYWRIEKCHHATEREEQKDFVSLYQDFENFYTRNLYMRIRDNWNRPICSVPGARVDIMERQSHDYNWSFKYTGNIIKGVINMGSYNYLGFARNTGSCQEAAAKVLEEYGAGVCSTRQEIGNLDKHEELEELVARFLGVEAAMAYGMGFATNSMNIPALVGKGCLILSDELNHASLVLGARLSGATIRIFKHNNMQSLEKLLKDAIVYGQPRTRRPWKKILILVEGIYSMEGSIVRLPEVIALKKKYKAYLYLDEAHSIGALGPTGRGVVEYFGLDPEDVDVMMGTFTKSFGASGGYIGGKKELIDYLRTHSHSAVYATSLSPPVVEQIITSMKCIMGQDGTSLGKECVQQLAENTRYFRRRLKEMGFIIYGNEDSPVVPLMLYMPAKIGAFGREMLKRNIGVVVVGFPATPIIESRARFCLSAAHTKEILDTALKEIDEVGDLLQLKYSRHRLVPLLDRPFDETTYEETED
T1 sequence (O15269 1-473 partner): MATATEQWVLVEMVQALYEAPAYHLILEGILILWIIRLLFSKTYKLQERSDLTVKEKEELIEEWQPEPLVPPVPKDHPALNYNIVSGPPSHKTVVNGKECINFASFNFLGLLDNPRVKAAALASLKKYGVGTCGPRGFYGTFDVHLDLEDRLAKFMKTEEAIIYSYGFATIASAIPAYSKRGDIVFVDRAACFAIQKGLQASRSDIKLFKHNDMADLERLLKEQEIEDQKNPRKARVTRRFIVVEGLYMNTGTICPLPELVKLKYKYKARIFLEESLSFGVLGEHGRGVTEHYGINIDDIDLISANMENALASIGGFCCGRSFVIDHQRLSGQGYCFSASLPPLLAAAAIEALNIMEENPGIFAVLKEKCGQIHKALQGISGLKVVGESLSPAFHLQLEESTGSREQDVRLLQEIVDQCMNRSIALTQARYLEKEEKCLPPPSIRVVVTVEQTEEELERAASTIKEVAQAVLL
T1 sequence (Q969W0 1-71 partner): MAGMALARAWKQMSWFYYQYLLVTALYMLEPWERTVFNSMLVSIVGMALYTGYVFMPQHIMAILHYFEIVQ
Test: SPT flashplate assay
Assay type: biochemical

[1] = microsomes of HEK 293 LCB2 cells, 3H-serine and palmitoyl CoA, phospholipid coated flashplate, 18-24 hours at room temperature, read-out: SPTISF IC50

Compound `CC1(C(=O)CN2CCC(n3c(=O)[nH]c4cc(S(C)(=O)=O)ccc43)CC2)CCCCC1` [Example 48, 1-{1-[2-(1-methylcyclohexyl)-2-oxoethyl]piperidin-4-yl}-5-(methylsulfonyl)-1,3-dihydro-2H-benzimidazol-2-one] has an IC50 [1] of 4400 nM.
Work on `COC1CCC(C(=O)CN2CCC(n3c(=O)[nH]c4cc(S(C)(=O)=O)ccc43)CC2)CC1` (stereo not drawn) [Example 43, 1-{1-[2-(4-methoxycyclohexyl)-2-oxoethyl]piperidin-4-yl}-5-(methylsulfonyl)-1,3-dihydro-2H-benzimidazol-2-one] yielded an IC50 [1] of 301 nM.
`CNC(=O)c1cc2c(cc1F)N(C1CCN(CC(=O)N3CCC(C)(C)CC3)CC1)C(=O)C2` [Example 22, 1-[2-(4,4-dimethylpiperidin-1-yl)-2-oxoethyl]-4-{6-fluoro-5-[(methylamino)carbonyl]-2-oxo-2,3-dihydro-1H-indol-1-yl}piperidinium chloride] gave an IC50 (SPTISF IC50 (nM)) of 10.6 nM.
In the case of `CNC(=O)c1ccc2c(c1)CC(=O)N2C1CCN(CC(=O)N2C[C@H]3CCC[C@H]3C2)CC1` [Example 20, 1-{2-[(3aR,6aS)-hexahydrocyclopenta[c]pyrrol-2(1H)-yl]-2-oxoethyl}-4-{5-[(methylamino)carbonyl]-2-oxo-2,3-dihydro-1H-indol-1-yl}piperidinium hydrogen sulfate], the IC50 (SPTISF IC50 (nM)) is reported as 11.4 nM.
`CS(=O)(=O)c1ccc2c(c1)[nH]c(=O)n2C1CCN(CC(=O)C2CCCCC2)CC1` [Example 41, 1-[1-(2-cyclohexyl-2-oxoethyl)piperidin-4-yl]-5-(methylsulfonyl)-1,3-dihydro-2H-benzimidazol-2-one] gave an IC50 [1] of 365 nM.
For `CNC(=O)c1cc2[nH]c(=O)n(C3CCN(CC(=O)C4CCC(C(F)(F)F)CC4)CC3)c2cc1F` (stereo not drawn) [Example 15, 6-fluoro-N-methyl-2-oxo-1-(1-{2-oxo-2-[4(trifluoromethyl)cyclohexyl]ethyl}piperidin-4-yl)-2,3-dihydro-1H-benzimidazole-5-carboxamide], the IC50 [1] was 9.5 nM.
`CC1(C)CCN(C(=O)CN2CCC(n3c(=O)[nH]c4cc(S(C)(=O)=O)ccc43)CC2)CC1` [Example 39, 1-{1-[2-(4,4-dimethylpiperidin-1-yl)-2-oxoethyl]piperidin-4-yl}-5-(methylsulfonyl)-1,3-dihydro-2H-benzimidazol-2-one] showed an IC50 [1] of 47.9 nM.
In the case of `CNC(=O)c1cc2[nH]c(=O)n(C3CCN(CC(=O)C4CCC(C)(OC)CC4)CC3)c2cc1F` (stereo not drawn) [Example 16, 6-fluoro-1-{1-[2-(4-methoxy-4-methylcyclohexyl)-2-oxoethyl]piperidin-4-yl}-N-methyl-2-oxo-2,3-dihydro-1H-benzimidazole-5-carboxamide], the IC50 [1] is reported as 53 nM.
`CNC(=O)c1cc2[nH]c(=O)n(C3CCN(CC(=O)C4CCC(F)(F)CC4)CC3)c2cc1F` [Example 12, 1-{1-[2-(4,4-difluorocyclohexyl)-2-oxoethyl]piperidin-4-yl}-6-fluoro-N-methyl-2-oxo-2,3-dihydro-1H-benzimidazole-5-carboxamide] showed an IC50 [1] of 5.3 nM.
Work on `CCC1(C)CCN(C(=O)CN2CCC(n3c(=O)[nH]c4cc(C(=O)NC)c(F)cc43)CC2)CC1` [Example 27, 1-{1-[2-(4-ethyl-4-methylpiperidin-1-yl)-2-oxoethyl]piperidin-4-yl}-6-fluoro-N-methyl-2-oxo-2,3-dihydro-1H-benzimidazole-5-carboxamide] yielded an IC50 [1] of 6 nM.
`COC1(C)CCC(C(=O)CN2CCC(n3c(=O)[nH]c4cc(S(C)(=O)=O)ccc43)CC2)CC1` (stereo not drawn) [Example 47, 1-{1-[2-(4-methoxy-4-methylcyclohexyl)-2-oxoethyl]piperidin-4-yl}-5-(methylsulfonyl)-1,3-dihydro-2H-benzimidazol-2-one] gave an IC50 [1] of 508 nM.
With `O=C(CN1CCC(n2c(=O)[nH]c3cc(-c4noc(=O)[nH]4)ccc32)CC1)c1ccc(Cl)cc1` [Example 37, 1-{1-[2-(4-chlorophenyl)-2-oxoethyl]piperidin-4-yl}-5-(5-oxo-4,5-dihydro-1,2,4-oxadiazol-3-yl)-1,3-dihydro-2H-benzimidazol-2-one] the IC50 (SPTISF IC50 (nM)) was 1.68 nM.
